Drawing on US8242174B2 (priority 2007, dated 2012), this text covers Ki for 41 compounds.

Counter-ions that a name gives are not always drawn.

A word on the Ki: it is the dissociation constant of the complex between target and ligand, obtained from inhibition or displacement. A higher Ki goes with lower affinity.

The target in this assay is Lethal factor protease (Bacillus anthracis, UniProt P15917). Briefly: biochemical.
Chain of Lethal factor protease (P15917 34-809 limits assumed): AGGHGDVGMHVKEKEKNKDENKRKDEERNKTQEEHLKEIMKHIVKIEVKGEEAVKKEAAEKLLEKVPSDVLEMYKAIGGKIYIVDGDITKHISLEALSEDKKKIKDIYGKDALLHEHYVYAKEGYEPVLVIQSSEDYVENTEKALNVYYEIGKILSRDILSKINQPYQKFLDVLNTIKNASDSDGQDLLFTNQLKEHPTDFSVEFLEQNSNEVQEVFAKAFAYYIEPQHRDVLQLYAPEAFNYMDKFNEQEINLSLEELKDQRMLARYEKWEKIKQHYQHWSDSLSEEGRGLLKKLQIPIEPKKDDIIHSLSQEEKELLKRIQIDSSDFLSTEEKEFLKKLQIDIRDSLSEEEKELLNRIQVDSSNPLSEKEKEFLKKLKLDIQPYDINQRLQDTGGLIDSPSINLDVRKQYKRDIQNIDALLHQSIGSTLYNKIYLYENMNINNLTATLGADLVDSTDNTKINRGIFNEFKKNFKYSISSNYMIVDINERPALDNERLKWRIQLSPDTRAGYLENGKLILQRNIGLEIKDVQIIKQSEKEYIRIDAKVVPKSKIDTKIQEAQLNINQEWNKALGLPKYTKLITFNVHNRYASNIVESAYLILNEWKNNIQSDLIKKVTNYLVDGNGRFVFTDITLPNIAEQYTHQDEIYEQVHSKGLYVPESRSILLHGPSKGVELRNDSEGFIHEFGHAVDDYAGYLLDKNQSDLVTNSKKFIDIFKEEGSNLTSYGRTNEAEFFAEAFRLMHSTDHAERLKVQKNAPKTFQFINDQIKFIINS

Compound `Cc1cc(N[C@H](CCCCNCc2ccc3c(c2)OCO3)C(=O)NO)ccc1F` [Compound 168145, (R)-6-[(Benzo[1,3]dioxol-5-ylmethyl)-amino]-2-(4-fluoro-3-methyl-phenylamino)-hexanoic acid hydroxyamide] showed a Ki of 170 nM.

`Cc1cc(CCCCCC[C@@H](Nc2cc(C)c(F)c(C)c2)C(=O)NO)ccc1F` [Compound 168118, (R)-2-(4-Fluoro-3,5-dimethyl-phenylamino)-8-(4-fluoro-3-methyl-phenyl)-octanoic acid hydroxyamide] came in with a Ki of 7200 nM.

`CCC[C@@H](Nc1cc(C)c(F)c(C)c1)C(=O)NO` [Compound 167391, (R)-2-(4-Fluoro-3,5-dimethyl-phenylamino)-pentanoic acid hydroxyamide]: the Ki turned out to be 500 nM. On to `Cc1cc(N[C@H](CCCCNS(=O)(=O)c2cccc(C(=O)O)c2)C(=O)NO)cc(C)c1F` [Compound 167621, (R)-3-[5-(4-Fluoro-3,5-dimethyl-phenylamino)-5-hydroxycarbamoyl-pentylsulfamoyl]-benzoic acid], for which affinity was put at a Ki of 1570 nM. The result for `Cc1cc(N[C@H](CCCCNS(=O)(=O)c2ccc(C(=O)O)cc2)C(=O)NO)cc(C)c1F` [Compound 167613, (R)-4-[5-(4-Fluoro-3,5-dimethyl-phenylamino)-5-hydroxycarbamoyl-pentylsulfamoyl]-benzoic acid] reads 3660 nM. The value for `Cc1cc(N[C@H](C(=O)NO)C(C)C)cc(C)c1F` [Compound 167296, (5)-2-(4-Fluoro-3,5-dimethyl-phenylamino)-N-hydroxy-3-methyl-butyramide] was 201000 nM; that for `Cc1cc(N[C@H](CCCCNCc2ccc(F)c(F)c2)C(=O)NO)ccc1F` [Compound 167990, (R)-6-(3,4-Difluoro-benzylamino)-2-(4-fluoro-3-methyl-phenylamino)-hexanoic acid hydroxyamide] was 100 nM. For the compound `CCCCC(Nc1cc(C)cc(Cl)c1)C(=O)NO` (centres unmarked) [Compound 167645, 2-(3-Chloro-5-methyl-phenylamino)-hexanoic acid hydroxyamide], the affinity corresponds to a Ki of 2200 nM. Compound `CCCC[C@H](Nc1ccc(F)c(C)c1)C(=O)NO` [Compound 167274, (S)-2-(4-Fluoro-3-methyl-phenylamino)-hexanoic acid hydroxyamide] showed a Ki of 116000 nM. The value for `Cc1cc(N[C@H](CCCCN)C(=O)NO)ccc1F` [Compound 167949, (R)-6-Amino-2-(4-fluoro-3-methyl-phenylamino)-hexanoic acid hydroxyamide] was 200 nM; that for `CCCCC(Nc1ccccc1)C(=O)NO` (centres unmarked) [Compound 167210, 2-Phenylamino-hexanoic acid hydroxyamide] was 203000 nM; that for `Cc1cc(N[C@H](CCCCNS(=O)(=O)c2cccc(N(C)C)c2)C(=O)NO)cc(C)c1F` [Compound 167700, (R)-6-(3-Dimethylamino-benzenesulfonylamino)-2-(4-fluoro-3,5-dimethyl-phenylamino)-hexanoic acid hydroxyamide] was 880 nM. The result for `Cc1cc(N[C@H](CCCCN(Cc2ccc(F)cc2)Cc2ccc(F)cc2)C(=O)NO)cc(C)c1F` [Compound 168047, (R)-6-[Bis-(4-fluoro-benzyl)-amino]-2-(4-fluoro-3,5-dimethyl-phenylamino)-hexanoic acid hydroxyamide] reads 790 nM; that for `Cc1cc(N[C@H](Cc2ccccc2)C(=O)NO)cc(C)c1F` [Compound 167378, (R)-2-(4-Fluoro-3,5-dimethyl-phenylamino)-N-hydroxy-3-phenyl-propionamide], 7000 nM. Consider `CCCCC(Nc1cc(F)cc(F)c1)C(=O)NO` (centres unmarked) [Compound 167807, 2-(3,5-Difluoro-phenylamino)-hexanoic acid hydroxyamide], for which the affinity, expressed as Ki, was 228000 nM. The value for `Cc1cc(CN(CCCC[C@@H](Nc2ccc(F)c(C)c2)C(=O)NO)Cc2ccc(F)c(C)c2)ccc1F` [Compound 167966, (R)-6-[Bis-(4-fluoro-3-methyl-benzyl)-amino]-2-(4-fluoro-3-methyl-phenylamino)-hexanoic acid hydroxyamide] was 6700 nM; that for `Cc1cc(N[C@H](CCCCNS(=O)(=O)c2ccc(N)cc2)C(=O)NO)cc(C)c1F` [Compound 167656, (R)-6-(4-Amino-benzenesulfonylamino)-2-(4-fluoro-3,5-dimethyl-phenylamino)-hexanoic acid hydroxyamide] was 610 nM. As to `Cc1cc(N[C@H](CCCCNCc2cccc(-c3ccccc3)c2)C(=O)NO)ccc1F` [Compound 168165, (R)-6-[(Biphenyl-3-ylmethyl)-amino]-2-(4-fluoro-3-methyl-phenylamino)-hexanoic acid hydroxyamide], the inhibitory constant (Ki) came to 120 nM.

Regarding `Cc1cc(N[C@H](CCCCNC(=O)OCc2ccccc2)C(=O)NO)cc(C)c1F` [Compound 167503, (R)-[5-(4-Fluoro-3,5-dimethyl-phenylamino)-5-hydroxycarbamoyl-pentyl]-carbamic acid benzyl ester], the Ki was 290 nM. The result for `Cc1cc(N[C@@H](C)C(=O)NO)ccc1F` [Compound 167364, (S)-2-(4-Fluoro-3-methyl-phenylamino)-N-hydroxy-propionamide] reads 87000 nM. The result for `Cc1cc(N[C@@H](C(=O)NO)c2ccccc2)cc(C)c1F` [Compound 167425, (R)-2-(4-Fluoro-3,5-dimethyl-phenylamino)-N-hydroxy-2-phenyl-acetamide] reads 480 nM. Compound `CCCCC(Nc1cc(C)c(F)c(C)c1)C(=O)NO` (centres unmarked) [Compound 167454, 2-(4-Fluoro-3,5-dimethyl-phenylamino)-hexanoic acid hydroxyamide] yielded an inhibition constant Ki of 800 nM.

`Cc1cc(N[C@H](CCCCNCc2ccc(Cl)s2)C(=O)NO)ccc1F` [Compound 168008, (R)-6-[(5-Chloro-thiophen-2-ylmethyl)-amino]-2-(4-fluoro-3-methyl-phenylamino)-hexanoic acid hydroxyamide] showed an inhibitory constant (Ki) of 60 nM.

Turning to `CCCCC(Nc1cc(C)cc(F)c1)C(=O)NO` (centres unmarked) [Compound 167722, 2-(3-Fluoro-5-methyl-phenylamino)-hexanoic acid hydroxyamide], the affinity corresponds to a Ki of 19000 nM. The value for `Cc1cc(N[C@H](CCCCN(Cc2ccc(F)nc2)Cc2ccc(F)nc2)C(=O)NO)ccc1F` [Compound 168080, (R)-6-[Bis-(6-fluoro-pyridin-3-ylmethyl)-amino]-2-(4-fluoro-3-methyl-phenylamino)-hexanoic acid hydroxyamide] was 10600 nM. The value for `Cc1cc(N[C@H](CC2CCCCC2)C(=O)NO)cc(C)c1F` [Compound 167405, (R)-3-Cyclohexyl-2-(4-fluoro-3,5-dimethyl-phenylamino)-N-hydroxy-propionamide] was 1480 nM; that for `Cc1cc(N[C@@H](C(=O)NO)C2CCCCC2)cc(C)c1F` [Compound 167424, (R)-2-Cyclohexyl-2-(4-fluoro-3,5-dimethyl-phenylamino)-N-hydroxy-acetamide] was 790 nM. For `Cc1cc(N[C@H](CCCCN(CC2CCCCC2)CC2CCCCC2)C(=O)NO)ccc1F` [Compound 167991, (R)-6-(Bis-cyclohexylmethyl-amino)-2-(4-fluoro-3-methyl-phenylamino)-hexanoic acid hydroxyamide], the inhibitory constant (Ki) is 16600 nM.

`CCCCC(Nc1ccc(F)c(OC)c1)C(=O)NO` (centres unmarked) [Compound 167793, 2-(4-Fluoro-3-methoxy-phenylamino)-hexanoic acid hydroxyamide]: the affinity, expressed as Ki, was 157000 nM. In turn, `CCCCC(Nc1cccc(C)c1)C(=O)NO` (centres unmarked) [Compound 167170, 2-m-Tolylamino-hexanoic acid hydroxyamide] displayed a Ki of 34100 nM.

Regarding `Cc1cc(N[C@H](C(=O)NO)C(C)C)ccc1F` [Compound 167268, (S)-2-(4-Fluoro-3-methyl-phenylamino)-N-hydroxy-3-methyl-butyramide hydrochloride], the Ki is > 300000 nM. The value for `Cc1cc(N[C@H](CCCCNS(C)(=O)=O)C(=O)NO)cc(C)c1F` [Compound 167531, (R)-2-(4-Fluoro-3,5-dimethyl-phenylamino)-6-methanesulfonylamino-hexanoic acid hydroxyamide] was 1000 nM. On to `CCCCC(Nc1ccc(F)c(C)c1)C(=O)NO` (centres unmarked) [Compound 167162, 2-(4-Fluoro-3-methyl-phenylamino)-hexanoic acid hydroxyamide], for which affinity was put at a Ki of 2000 nM. The value for `CCCCC(Nc1cc(C)cc(Br)c1)C(=O)NO` (centres unmarked) [Compound 167844, 2-(3-Bromo-5-methyl-phenylamino)-hexanoic acid hydroxyamide] was 3500 nM; that for `CCCCC(Nc1ccccc1C)C(=O)NO` (centres unmarked) [Compound 167292, 2-o-Tolylamino-hexanoic acid hydroxyamide] was 273000 nM.

Take `Cc1cc(NC(C(=O)NO)c2ccccc2)ccc1F` (centres unmarked) [Compound 167228, 2-(4-Fluoro-3-methyl-phenylamino)-N-hydroxy-2-phenyl-acetamide]: the affinity corresponds to a Ki of 2800 nM. In the case of `CCCCC(Nc1ccc(F)cc1)C(=O)NO` (centres unmarked) [Compound 167211, 2-(4-Fluoro-phenylamino)-hexanoic acid hydroxyamide], the Ki was found to be 81000 nM. Take `Cc1cc(N[C@H](CCCCNCc2cc(C)c(F)c(C)c2)C(=O)NO)ccc1F` [Compound 167968, (R)-6-(4-Fluoro-3,5-dimethyl-benzylamino)-2-(4-fluoro-3-methyl-phenylamino)-hexanoic acid hydroxyamide]: the inhibition constant Ki worked out at 100 nM. The result for `Cc1cc(N[C@H](CCCCn2c(C)ccc2C)C(=O)NO)cc(C)c1F` [Compound 167605, (R)-6-(2,5-Dimethyl-pyrrol-1-yl)-2-(4-fluoro-3,5-dimethyl-phenylamino)-hexanoic acid hydroxyamide] reads 2000 nM; that for `Cc1cc(COCCCC[C@@H](Nc2cc(C)c(F)c(C)c2)C(=O)NO)ccc1F` [Compound 168116, (R)-2-(4-Fluoro-3,5-dimethyl-phenylamino)-6-(4-fluoro-3-methyl-benzyloxy)-hexanoic acid hydroxyamide], 710 nM. Take `Cc1cc(N[C@H](CCCCNCc2ccc3sccc3c2)C(=O)NO)ccc1F` [Compound 168182, (R)-6-[(Benzo[b]thiophen-5-ylmethyl)-amino]-2-(4-fluoro-3-methyl-phenylamino)-hexanoic acid hydroxyamide]: affinity was put at a Ki of 150 nM.
